{"source": "the kinase profiling compilation of Christmann-Franck et al. (2016)", "experiment_in_all_cases": "KINOMEscan competition binding", "details_in_all_cases": "compound 10.0 µM", "key": {"[1]": {"target": "ANKK1 (human) (UniProt Q8NFD2)"}, "[2]": {"target": "AXL (human) (UniProt P30530)", "sequence (P30530 whole entry, looked up)": "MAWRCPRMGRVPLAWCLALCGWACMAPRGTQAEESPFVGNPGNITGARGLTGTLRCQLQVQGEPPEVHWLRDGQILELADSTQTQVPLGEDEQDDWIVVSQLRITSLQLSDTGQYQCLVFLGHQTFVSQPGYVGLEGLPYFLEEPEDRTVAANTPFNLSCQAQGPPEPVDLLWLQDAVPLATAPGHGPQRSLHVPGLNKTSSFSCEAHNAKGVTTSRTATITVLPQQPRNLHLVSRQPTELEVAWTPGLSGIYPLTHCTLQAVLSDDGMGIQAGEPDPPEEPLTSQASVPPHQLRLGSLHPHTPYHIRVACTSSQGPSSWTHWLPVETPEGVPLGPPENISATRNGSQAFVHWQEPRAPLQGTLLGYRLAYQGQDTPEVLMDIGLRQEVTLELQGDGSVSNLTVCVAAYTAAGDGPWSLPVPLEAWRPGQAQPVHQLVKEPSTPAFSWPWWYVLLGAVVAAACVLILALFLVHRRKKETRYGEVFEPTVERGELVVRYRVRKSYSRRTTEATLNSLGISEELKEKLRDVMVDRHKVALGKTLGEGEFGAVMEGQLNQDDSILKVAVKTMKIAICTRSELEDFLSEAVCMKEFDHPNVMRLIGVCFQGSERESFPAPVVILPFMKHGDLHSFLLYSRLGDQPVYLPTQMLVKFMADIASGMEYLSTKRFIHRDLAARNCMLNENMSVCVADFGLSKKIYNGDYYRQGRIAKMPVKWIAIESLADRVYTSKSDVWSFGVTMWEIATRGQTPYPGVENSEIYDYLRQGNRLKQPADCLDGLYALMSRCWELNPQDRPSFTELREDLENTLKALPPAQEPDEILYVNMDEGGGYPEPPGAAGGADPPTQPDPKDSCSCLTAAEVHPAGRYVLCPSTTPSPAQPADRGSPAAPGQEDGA"}, "[3]": {"target": "CAMK2B (human) (UniProt Q13554)"}, "[4]": {"target": "CAMK2D (human) (UniProt Q13557)"}, "[5]": {"target": "CDK13 (human) (UniProt Q14004)"}, "[6]": {"target": "CDKL5 (human) (UniProt O76039)"}, "[7]": {"target": "CaMK1 (human) (UniProt Q14012)"}, "[8]": {"target": "EIF2AK2 (human) (UniProt P19525)"}, "[9]": {"target": "EPHB2 (human) (UniProt P29323)"}, "[10]": {"target": "ICK (human) (UniProt Q9UPZ9)"}, "[11]": {"target": "INSRR (human) (UniProt P14616)"}, "[12]": {"target": "ITK (human) (UniProt Q08881)"}, "[13]": {"target": "LCK (human) (UniProt P06239)", "sequence (P06239 whole entry, looked up)": "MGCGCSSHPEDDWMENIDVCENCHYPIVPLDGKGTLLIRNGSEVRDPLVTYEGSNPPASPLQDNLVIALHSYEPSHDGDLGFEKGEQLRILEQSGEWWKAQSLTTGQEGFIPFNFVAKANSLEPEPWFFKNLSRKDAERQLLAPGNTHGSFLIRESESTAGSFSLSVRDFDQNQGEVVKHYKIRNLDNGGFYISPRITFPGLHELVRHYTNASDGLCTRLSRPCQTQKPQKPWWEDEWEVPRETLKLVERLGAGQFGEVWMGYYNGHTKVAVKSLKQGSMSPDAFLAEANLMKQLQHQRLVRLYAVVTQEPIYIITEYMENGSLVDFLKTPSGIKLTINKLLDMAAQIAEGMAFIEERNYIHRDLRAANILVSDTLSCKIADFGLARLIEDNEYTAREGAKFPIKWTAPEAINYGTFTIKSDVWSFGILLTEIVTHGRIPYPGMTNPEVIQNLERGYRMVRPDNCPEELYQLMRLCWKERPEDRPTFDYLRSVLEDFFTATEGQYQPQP"}, "[14]": {"target": "MAP3K4 (human) (UniProt Q9Y6R4)"}, "[15]": {"target": "MAP3K6 (human) (UniProt O95382)"}, "[16]": {"target": "MAP4K1 (human) (UniProt Q92918)"}, "[17]": {"target": "MAPKAPK2 (human) (UniProt P49137)"}, "[18]": {"target": "MST1R (human) (UniProt Q04912)"}, "[19]": {"target": "PIK3CB (human) (UniProt P42338)", "sequence (P42338 whole entry, looked up)": "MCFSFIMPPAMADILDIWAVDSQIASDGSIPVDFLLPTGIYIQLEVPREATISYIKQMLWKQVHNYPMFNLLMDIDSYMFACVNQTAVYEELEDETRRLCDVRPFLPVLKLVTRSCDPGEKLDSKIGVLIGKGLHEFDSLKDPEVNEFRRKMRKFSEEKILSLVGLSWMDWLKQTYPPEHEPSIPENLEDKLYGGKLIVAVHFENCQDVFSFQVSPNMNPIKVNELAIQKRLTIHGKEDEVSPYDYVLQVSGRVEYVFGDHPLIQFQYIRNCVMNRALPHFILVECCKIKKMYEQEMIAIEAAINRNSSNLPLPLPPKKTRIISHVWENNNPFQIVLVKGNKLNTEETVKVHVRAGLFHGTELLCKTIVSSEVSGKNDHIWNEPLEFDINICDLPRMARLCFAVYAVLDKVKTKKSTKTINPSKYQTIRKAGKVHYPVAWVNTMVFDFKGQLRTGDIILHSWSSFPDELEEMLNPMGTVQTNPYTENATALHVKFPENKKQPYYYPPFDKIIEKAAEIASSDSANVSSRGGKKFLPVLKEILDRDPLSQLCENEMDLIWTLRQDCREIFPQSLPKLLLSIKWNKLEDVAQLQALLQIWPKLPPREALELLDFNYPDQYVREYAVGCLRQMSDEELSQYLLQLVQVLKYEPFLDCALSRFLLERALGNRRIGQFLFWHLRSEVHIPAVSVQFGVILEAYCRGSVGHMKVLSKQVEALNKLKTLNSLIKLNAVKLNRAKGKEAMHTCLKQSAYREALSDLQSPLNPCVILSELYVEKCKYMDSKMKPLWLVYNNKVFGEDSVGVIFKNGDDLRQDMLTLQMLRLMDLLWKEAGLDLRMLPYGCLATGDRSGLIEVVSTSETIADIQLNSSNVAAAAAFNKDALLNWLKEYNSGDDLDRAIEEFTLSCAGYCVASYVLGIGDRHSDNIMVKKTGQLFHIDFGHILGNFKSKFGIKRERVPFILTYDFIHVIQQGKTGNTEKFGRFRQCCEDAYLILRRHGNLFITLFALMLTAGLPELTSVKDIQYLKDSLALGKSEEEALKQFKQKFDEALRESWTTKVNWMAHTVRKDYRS"}, "[20]": {"target": "PIM3 (human) (UniProt Q86V86)"}, "[21]": {"system": "RET (human), P07949 [M918T]"}, "[22]": {"target": "RIPK1 (human) (UniProt Q13546)"}, "[23]": {"target": "RIPK4 (human) (UniProt P57078)"}, "[24]": {"target": "RPS6KA3 KD1 (human) (UniProt P51812)"}, "[25]": {"target": "RPS6KA4 KD1 (human) (UniProt O75676)"}, "[26]": {"target": "SGK3 (human) (UniProt Q96BR1)", "sequence (Q96BR1 whole entry, looked up)": "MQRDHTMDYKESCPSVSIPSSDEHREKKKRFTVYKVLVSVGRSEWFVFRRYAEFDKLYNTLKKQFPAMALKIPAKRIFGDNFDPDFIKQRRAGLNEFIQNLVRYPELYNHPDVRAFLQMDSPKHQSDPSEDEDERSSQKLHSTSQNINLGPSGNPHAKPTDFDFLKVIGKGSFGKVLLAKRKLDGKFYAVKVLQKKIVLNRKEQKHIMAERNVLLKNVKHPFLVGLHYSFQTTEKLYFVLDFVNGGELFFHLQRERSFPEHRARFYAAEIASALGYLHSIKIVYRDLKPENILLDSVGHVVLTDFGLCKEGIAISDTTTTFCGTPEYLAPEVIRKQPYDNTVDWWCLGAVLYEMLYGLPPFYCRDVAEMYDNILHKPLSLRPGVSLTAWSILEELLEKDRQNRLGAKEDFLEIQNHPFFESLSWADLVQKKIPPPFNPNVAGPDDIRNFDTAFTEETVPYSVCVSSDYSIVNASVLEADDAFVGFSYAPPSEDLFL"}, "[27]": {"target": "SRPK2 (human) (UniProt P78362)"}, "[28]": {"target": "STK10 (human) (UniProt O94804)", "sequence (O94804 whole entry, looked up)": "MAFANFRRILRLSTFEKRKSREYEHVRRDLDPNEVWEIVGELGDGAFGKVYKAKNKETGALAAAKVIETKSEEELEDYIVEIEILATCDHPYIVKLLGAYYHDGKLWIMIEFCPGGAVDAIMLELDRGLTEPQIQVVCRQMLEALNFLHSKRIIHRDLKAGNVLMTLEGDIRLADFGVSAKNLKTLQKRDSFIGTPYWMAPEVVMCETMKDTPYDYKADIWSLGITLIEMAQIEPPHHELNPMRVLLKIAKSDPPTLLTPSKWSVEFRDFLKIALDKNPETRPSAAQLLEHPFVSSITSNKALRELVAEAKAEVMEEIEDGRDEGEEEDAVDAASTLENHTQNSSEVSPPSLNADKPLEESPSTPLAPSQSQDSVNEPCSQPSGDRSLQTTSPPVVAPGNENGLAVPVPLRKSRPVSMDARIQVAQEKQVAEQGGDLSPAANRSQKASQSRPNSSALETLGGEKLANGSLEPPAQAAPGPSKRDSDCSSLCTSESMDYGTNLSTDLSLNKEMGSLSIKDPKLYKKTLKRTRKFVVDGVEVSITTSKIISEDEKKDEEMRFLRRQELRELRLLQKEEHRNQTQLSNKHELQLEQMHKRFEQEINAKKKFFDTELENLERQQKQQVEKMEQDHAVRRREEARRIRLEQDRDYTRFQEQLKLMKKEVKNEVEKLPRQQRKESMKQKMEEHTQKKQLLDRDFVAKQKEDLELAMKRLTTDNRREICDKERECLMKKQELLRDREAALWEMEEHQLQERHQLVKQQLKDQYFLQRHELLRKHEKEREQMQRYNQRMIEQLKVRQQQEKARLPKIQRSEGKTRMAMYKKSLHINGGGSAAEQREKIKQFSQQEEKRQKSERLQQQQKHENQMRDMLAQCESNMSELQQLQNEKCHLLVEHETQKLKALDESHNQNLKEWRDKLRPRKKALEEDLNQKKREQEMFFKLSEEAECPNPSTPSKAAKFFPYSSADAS"}, "[29]": {"target": "STK16 (human) (UniProt O75716)", "sequence (O75716 whole entry, looked up)": "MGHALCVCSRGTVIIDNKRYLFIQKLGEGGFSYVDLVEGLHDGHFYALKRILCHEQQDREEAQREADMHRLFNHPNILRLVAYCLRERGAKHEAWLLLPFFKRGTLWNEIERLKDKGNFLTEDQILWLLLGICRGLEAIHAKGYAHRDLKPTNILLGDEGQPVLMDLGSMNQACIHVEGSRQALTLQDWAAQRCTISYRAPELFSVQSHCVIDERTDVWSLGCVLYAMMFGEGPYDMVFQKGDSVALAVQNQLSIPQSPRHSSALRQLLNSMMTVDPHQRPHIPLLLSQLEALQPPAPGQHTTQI"}, "[30]": {"target": "STK17A (human) (UniProt Q9UEE5)"}, "[31]": {"target": "STK17B (human) (UniProt O94768)"}, "[32]": {"target": "STK38 (human) (UniProt Q15208)", "sequence (Q15208 whole entry, looked up)": "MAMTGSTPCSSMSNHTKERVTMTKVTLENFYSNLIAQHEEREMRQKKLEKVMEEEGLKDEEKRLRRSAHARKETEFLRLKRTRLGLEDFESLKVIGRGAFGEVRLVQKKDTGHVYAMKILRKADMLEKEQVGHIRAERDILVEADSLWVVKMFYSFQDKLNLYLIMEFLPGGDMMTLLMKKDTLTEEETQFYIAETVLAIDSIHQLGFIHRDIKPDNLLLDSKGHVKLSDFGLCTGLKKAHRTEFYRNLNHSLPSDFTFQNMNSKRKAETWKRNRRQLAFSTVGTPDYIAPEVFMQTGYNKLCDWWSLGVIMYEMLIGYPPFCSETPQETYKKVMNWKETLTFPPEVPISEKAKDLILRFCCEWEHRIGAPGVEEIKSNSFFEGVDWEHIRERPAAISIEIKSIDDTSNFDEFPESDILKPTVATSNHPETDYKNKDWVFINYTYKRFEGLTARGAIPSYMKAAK"}, "[33]": {"target": "TIE1 (human) (UniProt P35590)"}, "[34]": {"target": "TTK (human) (UniProt P33981)"}, "[35]": {"target": "TXK (human) (UniProt P42681)"}, "[36]": {"target": "ULK2 (human) (UniProt Q8IYT8)"}, "[37]": {"target": "ULK3 (human) (UniProt Q6PHR2)"}}, "data": [{"compound": "CC(C)n1nc(-c2cc3cc(O)ccc3[nH]2)c2c(N)ncnc21", "values": [{"measurement": "kinase still bound, per cent of control", "setting": "[1]", "result": 8.8, "unit": "%"}, {"measurement": "kinase still bound, per cent of control", "setting": "[2]", "result": 21, "unit": "%"}, {"measurement": "kinase still bound, per cent of control", "setting": "[3]", "result": 63, "unit": "%"}, {"measurement": "kinase still bound, per cent of control", "setting": "[4]", "result": 69, "unit": "%"}, {"measurement": "per cent of control", "setting": "[5]", "result": 100, "unit": "%"}, {"measurement": "per cent of control", "setting": "[6]", "result": 100, "unit": "%"}, {"measurement": "kinase still bound, per cent of control", "setting": "[7]", "result": 45, "unit": "%"}, {"measurement": "kinase still bound, per cent of control", "setting": "[8]", "result": 48, "unit": "%"}, {"measurement": "kinase still bound, per cent of control", "setting": "[9]", "result": 32, "unit": "%"}, {"measurement": "kinase still bound, per cent of control", "setting": "[10]", "result": 58, "unit": "%"}, {"measurement": "kinase still bound, per cent of control", "setting": "[11]", "result": 100, "unit": "%"}, {"measurement": "kinase still bound, per cent of control", "setting": "[12]", "result": 100, "unit": "%"}, {"measurement": "kinase still bound, per cent of control", "setting": "[13]", "result": 0.95, "unit": "%"}, {"measurement": "kinase still bound, per cent of control", "setting": "[14]", "result": 85, "unit": "%"}, {"measurement": "kinase still bound, per cent of control", "setting": "[15]", "result": 85, "unit": "%"}, {"measurement": "kinase still bound, per cent of control", "setting": "[16]", "result": 33, "unit": "%"}, {"measurement": "kinase still bound, per cent of control", "setting": "[17]", "result": 100, "unit": "%"}, {"measurement": "kinase still bound, per cent of control", "setting": "[18]", "result": 89, "unit": "%"}, {"measurement": "kinase still bound, per cent of control", "setting": "[19]", "result": 0, "unit": "%"}, {"measurement": "kinase still bound, per cent of control", "setting": "[20]", "result": 31, "unit": "%"}, {"measurement": "kinase still bound, per cent of control", "setting": "[21]", "result": 0, "unit": "%"}, {"measurement": "kinase still bound, per cent of control", "setting": "[22]", "result": 100, "unit": "%"}, {"measurement": "kinase still bound, per cent of control", "setting": "[23]", "result": 6.3, "unit": "%"}, {"measurement": "kinase still bound, per cent of control", "setting": "[24]", "result": 0.35, "unit": "%"}, {"measurement": "kinase still bound, per cent of control", "setting": "[25]", "result": 100, "unit": "%"}, {"measurement": "kinase still bound, per cent of control", "setting": "[26]", "result": 81, "unit": "%"}, {"measurement": "kinase still bound, per cent of control", "setting": "[27]", "result": 100, "unit": "%"}, {"measurement": "kinase still bound, per cent of control", "setting": "[28]", "result": 0.5, "unit": "%"}, {"measurement": "kinase still bound, per cent of control", "setting": "[29]", "result": 34, "unit": "%"}, {"measurement": "kinase still bound, per cent of control", "setting": "[30]", "result": 81, "unit": "%"}, {"measurement": "kinase still bound, per cent of control", "setting": "[31]", "result": 40, "unit": "%"}, {"measurement": "kinase still bound, per cent of control", "setting": "[32]", "result": 60, "unit": "%"}, {"measurement": "kinase still bound, per cent of control", "setting": "[33]", "result": 49, "unit": "%"}, {"measurement": "kinase still bound, per cent of control", "setting": "[34]", "result": 9.2, "unit": "%"}, {"measurement": "kinase still bound, per cent of control", "setting": "[35]", "result": 3, "unit": "%"}, {"measurement": "kinase still bound, per cent of control", "setting": "[36]", "result": 39, "unit": "%"}, {"measurement": "kinase still bound, per cent of control", "setting": "[37]", "result": 65, "unit": "%"}]}]}
